Five compounds from patent US4211772A, “Benzopyran glycoside acetals and ketals” (Laboratoires Sarget, priority 1977, dated 1980) can be followed below.

One series in a line: Solubilities in water. The format is physicochemical. The following applies: for solubility: water, read-out: Solubilities in water.
Another series concerns carragenin edema. Briefly: Anti-inflammatory activity: carragenin edema test. The format is in vivo. The note with it: Rattus norvegicus, ip, saturated bicarbonate solution, read-out: % inhibition of carragenin edema; for inhibition in vivo at 75 mg/kg: 75 mg/kg i.p.; for inhibition in vivo at 150 mg/kg: 150 mg/kg i.p. As for the experimental part: Anti-inflammatory activity
This was determined by the carragenin edema test using male Wistar EOPS rats. Inflammation was induced by the injection of 0.1 ml of a suspension of 5% carragenin in physiological serum into the muscular bundle of the metatarsal region of the posterior paw of the animal. The test substance was administered i.p. in neutralized solution at the same time as the carragenin.
Edema was measured by plethysmometry at different times after the administration of the carragenin.
Tables IV and V show the percentages of inhibition as a function of time and of dosage for certain compounds of the present invention.
The above results were obtained for solutions of substantially alkaline
The reference experiments were performed using physiological serum brough
to a pH approximately the same as the pH of the solutions to be tested.

The target in the next series is T1, Aldose Reductase (Bos taurus, UniProt P16116).
T1 construct: The enzyme is extracted from beef eye lenses; from tissue; host or cells: beef eye lenses
Briefly: Inhibition of aldose reductase in vitro (enzyme from beef eye lenses, glyceraldehyde substrate). The format is biochemical. The note with it: in DMF solution, read-out: percentages of inhibition (aldose reductase); for inhibition at 100 µM: 10^-4 mole/l; for inhibition at 10 µM: 10^-5 mole/l. The text has this:
Inhibition of Aldose Reductase In Vitro
The reoxidation of NADPH coupled to the enzymatic reaction was followed spectrophotometrically at 340 nm.

In the next series the test system is capillary resistance. As to the kind of experiment: Capillaroprotecting effects: capillary resistance. The format is in vivo, male OFA EOPS rats. As for the experimental part:
(§1) Capillaroprotecting effects
The capillary resistance was determined by a variant of the method of Charlier et al, Arch. Inter. Physiol.

Another series relates to capillary permeability. As to the kind of experiment: Capillaroprotecting effects: capillary permeability. The format is in vivo, conventional male Wistar rats. Here is the method: as §1
The capillary permeability was determined by the method of Charlier et al, Arch. Inter. Physiol.

A further series has as its system galactosemic cataract. As to the kind of experiment: Galactosemic cataract in rats. The format is in vivo, weaning male EOPS Wistar rats. The following applies: 100 mg/kg/d i.p. As for the experimental part: GALACTOSEMIC CATARACT IN RATS
The study was conducted using weaning male EOPS Wistar rats having an initial weight of between 45 and 50 g. The animals were fed a high vitamin and high protein regimen containing 20% by weight of galactose. The first signs of cataracts, detected by the ophthalmoscope, appeared beginning with the third day. The animals received daily i.p. doses of the test compound, the treatment being started four days after the commencement of the galactosemic regimen. The evolution of the cataract was followed by the detection of maroon rings visible in the ophthalmoscope. These rings appeared on the external edge of the lens and progressed little by little to its center. Anatomopathological studies of the lenses confirmed that these brown rings correspond well to the characteristic histological lesions of galactosemic cataracts. Photographs taken with the aid of a retinograph facilitated the comparison of the evolution of the lesions.
Statistical calculations according to the .chi.^2 method permit an evaluation of the significance of the results obtained for each of the treatments compared to those for non-treated animals.

≈ marks a conversion by molar mass, not a printed value. Read-outs that look alike come from different tables or passages of the source.

Consider `O=c1c(O[C@@H]2O[C@H](CO)[C@@H](O)[C@H](O)[C@H]2O)c(-c2ccc(O)c(O)c2)oc2cc(O)cc(O)c12` [Isoquercitrin, reference compound], for which, in “Solubilities in water”, the Solubilities in water result is “insoluble”. Besides, the inhibition in vivo at 75 mg/kg is 28% in the series on carragenin edema (1/2 h); 32% in the series on carragenin edema (1 h, 1 h); 18% with carragenin edema (2 h, 2 h); 28% in the series with carragenin edema (3 h, 3 h); 22% in the series on carragenin edema (4 h, 4 h); 23% in the series on carragenin edema (5 h, 5 h). For the same compound, the inhibition in vivo at 75 mg/kg in the series on carragenin edema (6 h, 6 h) was determined as 25%. Besides, the inhibition in vivo at 150 mg/kg in the series on carragenin edema (1/2 h) came out at 30%; in the series on carragenin edema (1 h, 1 h), 40%; in the series with carragenin edema (2 h, 2 h), 37%; in the series on carragenin edema (3 h, 3 h), 18%; with carragenin edema (4 h, 4 h), 9%; in the series on carragenin edema (5 h, 5 h) it was 9%. In addition, in the series with carragenin edema (6 h, 6 h), the inhibition in vivo at 150 mg/kg was found to be 6%.

On to `CC1(C)O[C@@H]2[C@@H](O)[C@H](OC[C@H]3O[C@@H](Oc4c(-c5ccc(O)c(O)c5)oc5cc(O)cc(O)c5c4=O)[C@H](O)[C@@H](O)[C@@H]3O)OC[C@@H]2O1` [No. 4, 3-O-(3,4-O,O-isopropylidene-6-α-L-arabinosyl-β-D-glucosyl)-quercetin], for which, in the series “Solubilities in water”, the solubility was 600 µg/mL (≈ 943 µM). For the same compound, on Aldose Reductase, the inhibition at 100 µM worked out at 42% and the inhibition at 10 µM came out at 0%.

Take `O=c1ccc2cc(O[C@@H]3O[C@H](CO)[C@@H](O)[C@H](O)[C@H]3O)c(O)cc2o1` [Esculin, reference compound]: the solubility in the series “Solubilities in water” came out at 1700 µg/mL (≈ 5000 µM). On Aldose Reductase, the inhibition at 100 µM is 16%.

Consider `CC1(C)OC[C@H]2O[C@@H](Oc3c(-c4ccc(O)c(O)c4)oc4cc(O)cc(O)c4c3=O)[C@H](O)[C@@H](O)[C@@H]2O1` [No. 5, 3-O-(4,6-O,O-isopropylidene-β-D-glucosyl)-quercetin], for which, in “Solubilities in water”, the solubility was below 100 µg/mL. Also, on Aldose Reductase, the inhibition at 100 µM was determined as 83%. The inhibition at 10 µM at Aldose Reductase is 56%. Besides, the inhibition at 1 µM on Aldose Reductase (10^-6 mole/l) came out at 0%. In addition, the “% of animals for which the effect is ≥ 25 u cm Hg/h” value is reported as 60% in the series with capillary resistance (50 mg/kg i.p.), 80% with capillary resistance (100 mg/kg i.p.) and 80% in the series on capillary resistance (200 mg/kg i.p.). In addition, the “capillary resistance, effect observed” value came to 28 ± 9.8 u cm Hg/h in the series with capillary resistance (50 mg/kg i.p.), 32.25 ± 11.4 u cm Hg/h with capillary resistance (100 mg/kg i.p.) and 37 ± 16.1 u cm Hg/h in the series on capillary resistance (200 mg/kg i.p.). Further, the figures for the “percentage reduction of capillary permeability” value in the series with capillary permeability (50 mg/kg i.p.), with capillary permeability (100 mg/kg i.p.) and in the series with capillary permeability (200 mg/kg i.p.) were 11%, 34% and 28%, respectively.

Consider `O=c1c(O[C@@H]2O[C@H](CO[C@@H]3OC[C@H](O)[C@H](O)[C@H]3O)[C@@H](O)[C@H](O)[C@H]2O)c(-c2ccc(O)c(O)c2)oc2cc(O)cc(O)c12` [3-Vicianosyl quercetin, reference compound], for which the solubility in “Solubilities in water” was 330 µg/mL (≈ 553 µM). Further, the “percentage of animals which have not yet shown the appearance of cataracts” value with galactosemic cataract (day 0) was found to be 100%; with galactosemic cataract (day 1), 100%; with galactosemic cataract (day 2), 97%; in the series on galactosemic cataract (day 3), 59%; in the series on galactosemic cataract (day 4) it was 40%; in the series on galactosemic cataract (day 5), 31%. In addition, the “percentage of animals which have not yet shown the appearance of cataracts” value with galactosemic cataract (day 6) was 12%; in the series on galactosemic cataract (day 10), 9%; in the series with galactosemic cataract (day 12), 19%; in the series on galactosemic cataract (day 16), 22%; in the series on galactosemic cataract (day -4), 100%. Moreover, the “significance compared to non-treated animals (chi^2)” value in the series on galactosemic cataract (day 4), in the series with galactosemic cataract (day 5), in the series on galactosemic cataract (day 6), with galactosemic cataract (day 12) and with galactosemic cataract (day 16) was “S” each time.

By inhibition is commonly meant the percentage by which the read-out fell short of the control.
